Where two headings read alike, the source gives them in different places.
Test system: de novo fatty acid synthesis
[1] = Liver, CE, mean of treated mice
[2] = Liver, FFA, mean of treated mice
[3] = Liver, PC, mean of treated mice
[4] = Liver, PS/I, mean of treated mice
[5] = Liver, TAG, mean of treated mice
[6] = Plasma, CE, mean of treated mice
[7] = Plasma, FFA, mean of treated mice
[8] = Plasma, PC, mean of treated mice
[9] = Plasma, PL, mean of treated mice
[10] = Plasma, TAG, mean of treated mice

CN(CCOc1ccc(CC2SC(=O)NC2=O)cc1)c1ccccn1 (stereo not drawn) [rosiglitazone]
18:0 [1]: 204.4 nanomoles per gram
18:1n7 [1]: 138.6 nanomoles per gram
18:1n9 [1]: 1208.0 nanomoles per gram
Saturates [1]: 3147.2 nanomoles per gram
Total n7 [1]: 817.0 nanomoles per gram
Total n9 [1]: 1239.5 nanomoles per gram
Total nMole of [1]: 5830.7 nanomoles per gram
14:0 (Liver, CL, mean): 0.5 percentage of total fatty acids within each lipid class
16:0 (Liver, CL, mean): 5.7 percentage of total fatty acids within each lipid class
16:1n7 (Liver, CL, mean): 6.3 percentage of total fatty acids within each lipid class
18:0 (Liver, CL, mean): 3.6 percentage of total fatty acids within each lipid class
18:1n7 (Liver, CL, mean): 5.5 percentage of total fatty acids within each lipid class
18:1n9 (Liver, CL, mean): 10.0 percentage of total fatty acids within each lipid class
Saturates (Liver, CL, mean): 10.6 percentage of total fatty acids within each lipid class
Total (Liver, CL, mean): 100.0 percentage of total fatty acids within each lipid class
Total n7 (Liver, CL, mean): 11.8 percentage of total fatty acids within each lipid class
Total n9 (Liver, CL, mean): 10.5 percentage of total fatty acids within each lipid class
14:0 (Liver, FFA, mean): 1.0 percentage of total fatty acids within each lipid class
16:0 (Liver, FFA, mean): 19.9 percentage of total fatty acids within each lipid class
16:1n7 (Liver, FFA, mean): 9.4 percentage of total fatty acids within each lipid class
18:0 (Liver, FFA, mean): 3.0 percentage of total fatty acids within each lipid class
18:1n7 (Liver, FFA, mean): 6.4 percentage of total fatty acids within each lipid class
18:1n9 (Liver, FFA, mean): 25.4 percentage of total fatty acids within each lipid class
Saturates (Liver, FFA, mean): 24.4 percentage of total fatty acids within each lipid class
Total (Liver, FFA, mean): 100.0 percentage of total fatty acids within each lipid class
Total n7 (Liver, FFA, mean): 15.8 percentage of total fatty acids within each lipid class
Total n9 (Liver, FFA, mean): 26.0 percentage of total fatty acids within each lipid class
14:0 [2]: 236.5 nanomoles per gram
16:0 [2]: 4507.0 nanomoles per gram
16:1n7 [2]: 2121.2 nanomoles per gram
18:0 [2]: 691.5 nanomoles per gram
18:1n7 [2]: 1466.0 nanomoles per gram
18:1n9 [2]: 5761.2 nanomoles per gram
Saturates [2]: 5541.5 nanomoles per gram
Total n7 [2]: 3587.3 nanomoles per gram
Total n9 [2]: 5909.9 nanomoles per gram
Total nMole of [2]: 22631.3 nanomoles per gram
14:0 (Liver, PC, mean): 0.2 percentage of total fatty acids within each lipid class
16:0 (Liver, PC, mean): 33.3 percentage of total fatty acids within each lipid class
16:1n7 (Liver, PC, mean): 1.7 percentage of total fatty acids within each lipid class
18:0 (Liver, PC, mean): 10.3 percentage of total fatty acids within each lipid class
18:1n7 (Liver, PC, mean): 4.6 percentage of total fatty acids within each lipid class
18:1n9 (Liver, PC, mean): 9.6 percentage of total fatty acids within each lipid class
Saturates (Liver, PC, mean): 44.1 percentage of total fatty acids within each lipid class
Total (Liver, PC, mean): 100.0 percentage of total fatty acids within each lipid class
Total n7 (Liver, PC, mean): 6.4 percentage of total fatty acids within each lipid class
Total n9 (Liver, PC, mean): 10.2 percentage of total fatty acids within each lipid class
14:0 [3]: 43.2 nanomoles per gram
16:0 [3]: 9572.4 nanomoles per gram
16:1n7 [3]: 501.3 nanomoles per gram
18:0 [3]: 2975.6 nanomoles per gram
18:1n7 [3]: 1329.1 nanomoles per gram
18:1n9 [3]: 2767.4 nanomoles per gram
Saturates [3]: 12686.5 nanomoles per gram
Total n7 [3]: 1830.5 nanomoles per gram
Total n9 [3]: 2932.3 nanomoles per gram
Total nMole of [3]: 14390.8 nanomoles per gram
14:0 (Liver, PS/I, mean): 0.2 percentage of total fatty acids within each lipid class
16:0 (Liver, PS/I, mean): 11.1 percentage of total fatty acids within each lipid class
16:1n7 (Liver, PS/I, mean): 0.7 percentage of total fatty acids within each lipid class
18:0 (Liver, PS/I, mean): 32.3 percentage of total fatty acids within each lipid class
18:1n7 (Liver, PS/I, mean): 2.9 percentage of total fatty acids within each lipid class
18:1n9 (Liver, PS/I, mean): 6.7 percentage of total fatty acids within each lipid class
Saturates (Liver, PS/I, mean): 44.2 percentage of total fatty acids within each lipid class
Total (Liver, PS/I, mean): 100.0 percentage of total fatty acids within each lipid class
Total n7 (Liver, PS/I, mean): 3.6 percentage of total fatty acids within each lipid class
Total n9 (Liver, PS/I, mean): 8.2 percentage of total fatty acids within each lipid class
14:0 [4]: 18.9 nanomoles per gram
16:0 [4]: 1158.5 nanomoles per gram
16:1n7 [4]: 76.0 nanomoles per gram
18:0 [4]: 3348.9 nanomoles per gram
18:1n7 [4]: 303.2 nanomoles per gram
18:1n9 [4]: 693.2 nanomoles per gram
Saturates [4]: 4590.1 nanomoles per gram
Total n7 [4]: 379.2 nanomoles per gram
Total n9 [4]: 854.3 nanomoles per gram
Total nMole of [4]: 5196.5 nanomoles per gram
14:0 (Liver, TAG, mean): 0.5 percentage of total fatty acids within each lipid class
16:0 (Liver, TAG, mean): 27.1 percentage of total fatty acids within each lipid class
16:1n7 (Liver, TAG, mean): 8.1 percentage of total fatty acids within each lipid class
18:0 (Liver, TAG, mean): 0.6 percentage of total fatty acids within each lipid class
18:1n7 (Liver, TAG, mean): 5.8 percentage of total fatty acids within each lipid class
18:1n9 (Liver, TAG, mean): 39.6 percentage of total fatty acids within each lipid class
Saturates (Liver, TAG, mean): 28.6 percentage of total fatty acids within each lipid class
Total (Liver, TAG, mean): 100.0 percentage of total fatty acids within each lipid class
Total n7 (Liver, TAG, mean): 13.9 percentage of total fatty acids within each lipid class
Total n9 (Liver, TAG, mean): 40.5 percentage of total fatty acids within each lipid class
14:0 [5]: 2450.8 nanomoles per gram
16:0 [5]: 122013.9 nanomoles per gram
16:1n7 [5]: 36411.0 nanomoles per gram
18:0 [5]: 2665.4 nanomoles per gram
18:1n7 [5]: 26279.6 nanomoles per gram
18:1n9 [5]: 179035.8 nanomoles per gram
Saturates [5]: 129102.3 nanomoles per gram
Total n7 [5]: 62690.6 nanomoles per gram
Total n9 [5]: 183105.4 nanomoles per gram
Total nMole of [5]: 150412.8 nanomoles per gram
14:0 (Plasma, CE, mean): 0.6 percentage of total fatty acids within each lipid class
16:0 (Plasma, CE, mean): 3.7 percentage of total fatty acids within each lipid class
16:1n7 (Plasma, CE, mean): 6.5 percentage of total fatty acids within each lipid class
18:0 (Plasma, CE, mean): 0.2 percentage of total fatty acids within each lipid class
18:1n7 (Plasma, CE, mean): 0.7 percentage of total fatty acids within each lipid class
18:1n9 (Plasma, CE, mean): 6.1 percentage of total fatty acids within each lipid class
Saturates (Plasma, CE, mean): 4.9 percentage of total fatty acids within each lipid class
Total (Plasma, CE, mean): 100.0 percentage of total fatty acids within each lipid class
Total n7 (Plasma, CE, mean): 7.3 percentage of total fatty acids within each lipid class
Total n9 (Plasma, CE, mean): 6.6 percentage of total fatty acids within each lipid class
14:0 [6]: 16.8 nanomoles per gram
16:0 [6]: 113.0 nanomoles per gram
16:1n7 [6]: 200.8 nanomoles per gram
18:0 [6]: 7.1 nanomoles per gram
18:1n7 [6]: 22.7 nanomoles per gram
18:1n9 [6]: 189.1 nanomoles per gram
Saturates [6]: 148.8 nanomoles per gram
Total n7 [6]: 223.4 nanomoles per gram
Total n9 [6]: 202.2 nanomoles per gram
Total nMole of [6]: 3058.7 nanomoles per gram
14:0 (Plasma, FFA, mean): 3.3 percentage of total fatty acids within each lipid class
16:0 (Plasma, FFA, mean): 30.9 percentage of total fatty acids within each lipid class
16:1n7 (Plasma, FFA, mean): 8.3 percentage of total fatty acids within each lipid class
18:0 (Plasma, FFA, mean): 8.1 percentage of total fatty acids within each lipid class
18:1n7 (Plasma, FFA, mean): 3.2 percentage of total fatty acids within each lipid class
18:1n9 (Plasma, FFA, mean): 18.4 percentage of total fatty acids within each lipid class
Saturates (Plasma, FFA, mean): 43.8 percentage of total fatty acids within each lipid class
Total (Plasma, FFA, mean): 100.0 percentage of total fatty acids within each lipid class
Total n9 (Plasma, FFA, mean): 18.9 percentage of total fatty acids within each lipid class
14:0 [7]: 15.9 nanomoles per gram
16:0 [7]: 148.4 nanomoles per gram
16:1n7 [7]: 41.4 nanomoles per gram
18:0 [7]: 37.3 nanomoles per gram
18:1n7 [7]: 15.2 nanomoles per gram
18:1n9 [7]: 90.2 nanomoles per gram
Saturates [7]: 208.8 nanomoles per gram
Total n7 [7]: 56.7 nanomoles per gram
Total n9 [7]: 92.7 nanomoles per gram
Total nMole of [7]: 478.4 nanomoles per gram
14:0 (Plasma, PC, mean): 0.1 percentage of total fatty acids within each lipid class
16:0 (Plasma, PC, mean): 30.8 percentage of total fatty acids within each lipid class
16:1n7 (Plasma, PC, mean): 0.8 percentage of total fatty acids within each lipid class
18:0 (Plasma, PC, mean): 13.0 percentage of total fatty acids within each lipid class
18:1n7 (Plasma, PC, mean): 4.1 percentage of total fatty acids within each lipid class
18:1n9 (Plasma, PC, mean): 9.4 percentage of total fatty acids within each lipid class
Saturates (Plasma, PC, mean): 44.6 percentage of total fatty acids within each lipid class
Total (Plasma, PC, mean): 100.0 percentage of total fatty acids within each lipid class
Total n7 (Plasma, PC, mean): 4.9 percentage of total fatty acids within each lipid class
Total n9 (Plasma, PC, mean): 9.9 percentage of total fatty acids within each lipid class
14:0 [8]: 5.7 nanomoles per gram
16:0 [8]: 1246.9 nanomoles per gram
16:1n7 [8]: 34.2 nanomoles per gram
18:0 [8]: 528.9 nanomoles per gram
18:1n7 [8]: 164.8 nanomoles per gram
18:1n9 [8]: 383.4 nanomoles per gram
Saturates [8]: 1804.9 nanomoles per gram
Total n7 [8]: 199.0 nanomoles per gram
Total n9 [8]: 405.1 nanomoles per gram
Total nMole of [8]: 2027.9 nanomoles per gram
14:0 (Plasma, PL, mean): 0.2 percentage of total fatty acids within each lipid class
16:0 (Plasma, PL, mean): 30.9 percentage of total fatty acids within each lipid class
16:1n7 (Plasma, PL, mean): 0.9 percentage of total fatty acids within each lipid class
18:0 (Plasma, PL, mean): 11.9 percentage of total fatty acids within each lipid class
18:1n7 (Plasma, PL, mean): 3.9 percentage of total fatty acids within each lipid class
18:1n9 (Plasma, PL, mean): 7.4 percentage of total fatty acids within each lipid class
Saturates (Plasma, PL, mean): 43.9 percentage of total fatty acids within each lipid class
Total (Plasma, PL, mean): 100.0 percentage of total fatty acids within each lipid class
Total n7 (Plasma, PL, mean): 4.8 percentage of total fatty acids within each lipid class
Total n9 (Plasma, PL, mean): 8.7 percentage of total fatty acids within each lipid class
14:0 [9]: 7.7 nanomoles per gram
16:0 [9]: 1533.6 nanomoles per gram
16:1n7 [9]: 43.0 nanomoles per gram
18:0 [9]: 604.7 nanomoles per gram
18:1n7 [9]: 195.0 nanomoles per gram
18:1n9 [9]: 384.8 nanomoles per gram
Saturates [9]: 2191.4 nanomoles per gram
Total n7 [9]: 238.0 nanomoles per gram
Total n9 [9]: 449.9 nanomoles per gram
Total nMole of [9]: 2496.5 nanomoles per gram
14:0 (Plasma, TAG, mean): 1.2 percentage of total fatty acids within each lipid class
16:0 (Plasma, TAG, mean): 21.9 percentage of total fatty acids within each lipid class
16:1n7 (Plasma, TAG, mean): 7.0 percentage of total fatty acids within each lipid class
18:0 (Plasma, TAG, mean): 1.8 percentage of total fatty acids within each lipid class
18:1n7 (Plasma, TAG, mean): 4.5 percentage of total fatty acids within each lipid class
18:1n9 (Plasma, TAG, mean): 27.2 percentage of total fatty acids within each lipid class
Saturates (Plasma, TAG, mean): 25.8 percentage of total fatty acids within each lipid class
Total (Plasma, TAG, mean): 100.0 percentage of total fatty acids within each lipid class
Total n9 (Plasma, TAG, mean): 27.9 percentage of total fatty acids within each lipid class
14:0 [10]: 17.1 nanomoles per gram
16:0 [10]: 315.8 nanomoles per gram
16:1n7 [10]: 102.5 nanomoles per gram
18:0 [10]: 24.9 nanomoles per gram
18:1n7 [10]: 66.1 nanomoles per gram
18:1n9 [10]: 398.8 nanomoles per gram
Saturates [10]: 368.7 nanomoles per gram
Total n7 [10]: 168.5 nanomoles per gram
Total n9 [10]: 410.2 nanomoles per gram
Total nMole of [10]: 484.3 nanomoles per gram

— patent publication US20050009005A1, “Methods of using quantitative lipid metabolome data” (Lipomics Technologies, Inc., priority 2001, published 2005)
